The values below come from patent publication US20260242390A1, “TOTAL SYNTHESES OF PORTIMINE A AND ANALOGUES THEREOF AS SMALL MOLECULE MODULATORS OF NMD3” (priority 2023, published 2026).

For test [1], the system named is LNCaP. Briefly: Broad cell line profiling, LNCaP. The class given is cell-based. The following applies: Homo sapiens, Prostate Carcinoma, read-out: PA IC50. An excerpt: (§1) • A panel of human and mouse cancer cell types used to assess the breadth of PA activity, including multiple therapy resistant metastatic mesenchymal tumor cell lines and primary glioblastoma patient-derived metastatic stem/tumor initiating cell populations.

The subject of test [2] is LN229. Briefly: Broad cell line profiling, LN229. The class given is cell-based. The note with it: Homo sapiens, LN-229; LN229, Glioblastoma; read-out: PA IC50.
Source text: as §1

Test [3] relates to Bcl2. Briefly: Bcl2 protein level in Jurkat cells. The class given is cell-based, human. The following applies: 6/12 hrs. As for the experimental part: (§2) FIG. 7. Portimine A targets NMD3 and prevents polysome formation. […] (A) Immunoblot showing reduced NMD3 levels in shNMD3 Jurkat and HeLa cells. […] Jurkat cells were treated with 12.5 nM of PA for 12 or 24 hours. Jurkat and HeLa cells were treated with 5 nM or 150 nM of PA for 24 hours. Data represents mean±SD of biologically replicated experiments (n=3). […] Cell lysates were fractionated by sucrose gradient (5-50%) and each fraction were analyzed by western blot. eIF6 levels increase in 60S subunit fraction and decrease in ribosome-free fractions after PA treatment. RPS6, a 40S and polysome subunits marker, is decreased in polysome fractions after PA treatment. Results are representative of three independent experiments. […] Relative protein levels in each fraction were normalized to the peak fraction of the indicated protein from the DMSO cells and plotted. Data represents mean±SD of biologically replicated experiments (n=3). Statistical analysis was performed using multiple unpaired Student t-test. * p≤0.05; ** p≤0.01; *** p≤0.005; **** p≤0.0001. Treatment condition: Jurkat (5 M per condition); Incubate cells (1 M/mL) with inhibitors for 6 hr, 12 hr and 24 hr, respectively.
(§3) • 1) Portimine A and its functional analogs show stereo-selective acute toxicity in cancer cells (FIG. 1). […] (B) Structure of portimine related analogs: phenyl-portimine A (Ph-PA, 36) and epi-portimine A (ePA, 38). […]

In test [4] the test system is Jurkat cells. Nature of the test: Polysome profiling. The following applies: 6 hours at 50 nM. The class given is cell-based, human. As to the method:
as §2, §3

A word on the IC50: it is the concentration that gives 50% inhibition. On to `C=CC1=C[C@@H]2[C@@H]3O[C@]4(CC[C@H](O4)C(C)C[C@@H](O)C3=O)CC(O)C3=NCC[C@@]32CC1` (stereo partly shown) [PA, portimine A], for which the IC50 in test [1] stood at 1.7 nM; in test [2], 1.1 nM. For the same molecule, in test [3], the Bcl2 levels entry is on record as “does not affect”. In addition, the “polysome profiling, protein translation” value in test [4] is reported as “protein translation inhibition”.
